Common to all, as to experiment: spectrophotometric oxidation at […] nm, hyperbolic fit
Format in all cases: biochemical

In assay [1] the target is T1, RY2 laccase (parent of Li9, Li10, Li11, C-LeB, Mol2, Mol3) (basidiomycete PM1, UniProt Q12571, N284V/F413N/F417I/F475P/F481M, form not given).
T1 construct: one polypeptide; engineered from 7D5 (PDB 6H5Y, used as model template), which came from DNA shuffling of evolved PM1L and P. cinnabarinus laccases; RY2 residues: D263 (from N263), P454, S207, S291, V413, D457, A461, I468; evolved alpha-factor leader a9H2 as signal peptide; host S. cerevisiae BJ5465, purified by HPLC
The conditions noted are these: 100 mM Tris-HCl pH 8, room temperature.

Assay [2] addresses T2, RY2 laccase (parent of Li9, Li10, Li11, C-LeB, Mol2, Mol3) (basidiomycete PM1, UniProt Q12571, N284D/F413N/F417I/F475P/F481M, form not given).
T2 construct: one polypeptide; engineered from 7D5 (PDB 6H5Y, used as model template), which came from DNA shuffling of evolved PM1L and P. cinnabarinus laccases; RY2 residues: D263 (from N263), P454, S207, S291, V413, D457, A461, I468; evolved alpha-factor leader a9H2 as signal peptide; host S. cerevisiae BJ5465, purified by HPLC
The conditions noted are these: 100 mM Tris-HCl pH 8, room temperature.

For assay [3], the target named is T3, RY2 laccase (parent of Li9, Li10, Li11, C-LeB, Mol2, Mol3) (basidiomycete PM1, UniProt Q12571, N284D/F475P, form not given).
T3 construct: one polypeptide; engineered from 7D5 (PDB 6H5Y, used as model template), which came from DNA shuffling of evolved PM1L and P. cinnabarinus laccases; RY2 residues: D263 (from N263), P454, S207, S291, V413, D457, A461, I468; evolved alpha-factor leader a9H2 as signal peptide; host S. cerevisiae BJ5465, purified by HPLC
The conditions noted are these: pH 5, room temperature.

The target of assay [4] is T4, RY2 laccase (parent of Li9, Li10, Li11, C-LeB, Mol2, Mol3) (basidiomycete PM1, UniProt Q12571, N284V/F413N/F417I/F475P/A479L/F481M, form not given).
T4 construct: one polypeptide; engineered from 7D5 (PDB 6H5Y, used as model template), which came from DNA shuffling of evolved PM1L and P. cinnabarinus laccases; RY2 residues: D263 (from N263), P454, S207, S291, V413, D457, A461, I468; evolved alpha-factor leader a9H2 as signal peptide; host S. cerevisiae BJ5465, purified by HPLC
The conditions noted are these: 100 mM Tris-HCl pH 8, room temperature.

For assay [5], the target named is T5, RY2 laccase (parent of Li9, Li10, Li11, C-LeB, Mol2, Mol3) (basidiomycete PM1, UniProt Q12571, N284V/F413N/F417I/V445T/S450T/D462N/F475P/A479L/F481M, form not given).
T5 construct: one polypeptide; engineered from 7D5 (PDB 6H5Y, used as model template), which came from DNA shuffling of evolved PM1L and P. cinnabarinus laccases; RY2 residues: D263 (from N263), P454, S207, S291, V413, D457, A461, I468; evolved alpha-factor leader a9H2 as signal peptide; host S. cerevisiae BJ5465, purified by HPLC
The conditions noted are these: 100 mM Tris-HCl pH 8, room temperature.

Each structure is given as a SMILES string.

T1 sequence (Q12571 entry or part of it N284V/F413N/F417I/F475P/F481M, form open): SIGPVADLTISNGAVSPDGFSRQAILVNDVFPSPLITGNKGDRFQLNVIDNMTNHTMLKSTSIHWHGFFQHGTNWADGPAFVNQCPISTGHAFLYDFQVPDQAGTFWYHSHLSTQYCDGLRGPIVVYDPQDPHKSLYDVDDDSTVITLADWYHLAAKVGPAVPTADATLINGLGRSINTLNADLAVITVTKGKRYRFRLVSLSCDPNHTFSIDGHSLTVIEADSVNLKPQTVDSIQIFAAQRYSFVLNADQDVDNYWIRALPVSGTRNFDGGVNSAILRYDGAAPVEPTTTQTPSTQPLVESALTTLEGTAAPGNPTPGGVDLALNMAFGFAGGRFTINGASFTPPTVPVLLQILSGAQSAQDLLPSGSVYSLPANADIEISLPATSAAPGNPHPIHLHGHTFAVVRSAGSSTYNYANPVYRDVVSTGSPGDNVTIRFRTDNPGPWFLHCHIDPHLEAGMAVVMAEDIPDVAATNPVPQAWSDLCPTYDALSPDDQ
T2 sequence (Q12571 entry or part of it N284D/F413N/F417I/F475P/F481M, form open): as the sequence (Q12571 entry or part of it N284V/F413N/F417I/F475P/F481M, form open) above, with V263D counted along it
T5 sequence (Q12571 entry or part of it N284V/F413N/F417I/V445T/S450T/D462N/F475P/A479L/F481M, form open): as the sequence (Q12571 entry or part of it N284V/F413N/F417I/F475P/F481M, form open) above, with V424T, S429T, D441N, A458L counted along it
T3 sequence (Q12571 entry or part of it N284D/F475P, form open): as the sequence (Q12571 entry or part of it N284V/F413N/F417I/F475P/F481M, form open) above, with V263D, N392F, I396F, M460F counted along it
T4 sequence (Q12571 entry or part of it N284V/F413N/F417I/F475P/A479L/F481M, form open): as the sequence (Q12571 entry or part of it N284V/F413N/F417I/F475P/F481M, form open) above, with A458L counted along it

As for `COc1cccc(OC)c1O` [2,6-dimethoxyphenol], the Km is 1500 ± 100 µM in assay [1]; 20000 ± 2400 µM in assay [2]; 260 ± 40 µM in assay [3]; 1700 ± 100 µM in assay [4]; 1700 ± 200 µM in assay [5].

The Km is the substrate concentration at which the rate is half of its maximum.

For the origin of these results see publication PMC9798632, “Tailor-made alkaliphilic and thermostable fungal laccases for industrial wood processing” (Biotechnology for Biofuels and Bioproducts, 2022).
